Measurements from EP0502020B1, “NOVEL BENZO [b] PHENANTHROLINE-1,7 DERIVATIVES, AND THEIR PREPARATION AND THERAPEUTICAL APPLICATIONS” (PIERRE FABRE MEDICAMENT, priority 1989, dated 1991).

The compounds below were run on leucémie murine L 1210 (assay: Cytotoxic activity on murine leukaemia L 1210 cells in suspension culture, cell count after 48 h). Conditions: Mus musculus, L1210; concentration reducing growth by 50 % versus controls; 48 heures d'incubation; Coulter Counter; 37°C, 5 % CO₂.
Format: cell-based
Procedure: L'activité cytotoxique a été evaluée sur le modèle de la leucémie murine L 1210 cultivée en suspension en milieu iquide à 37°C sous une atmosphère de 5 % CO₂.
Les cellules en phase exponentielle de croissance sont incubées en présence de concentrations croissantes des produits. Après 48 heures d'incubation, les cellules sont comptées (Coulter Counter) et l'effet cytotoxique est évalué par la détermination par régression linéaire de la concentration du produit ayant réduit de 50 % la croissance par rapport aux témoins (IC₅₀).

`COCc1c(O)ccc2cc3ccc4ncccc4c3nc12` [Exemple 2, Hydroxy-10 méthoxyméthyl-11 benzo [b] phénanthroline-1,7] was tested. Which IC50 did it give?
The IC50 was 6.5 µM.

Which IC50 does the source give for `CN1COCc2c1ccc1cc3ccc4ncccc4c3nc21` [Exemple 4, Dihydro-3,4 méthyl-4 1H-benzoxazino [3,1] [5,6-b] phénanthroline-1,7] here?
Its IC50 is 1.3 µM.

Which IC50 does the source give for `CNc1ccc2cc3ccc4ncccc4c3nc2c1COC` [Exemple 6, Méthoxyméthyl-11 méthylamino-10 benzo [b] phénanthroline-1,7] here?
The IC50 was 1.1 µM.

Which IC50 does the source give for `CNc1ccc2cc3ccc4ncccc4c3nc2c1CO` [Exemple 7, Hydroxyméthyl-11 méthylamino-10 benzo [b] phénanthroline-1,7] here?
Its IC50 is 0.17 µM.
